{"source": "patent US20230149355A1", "about": "“COMPOSITIONS AND METHODS FOR MODULATING TRP CHANNEL ACTIVITY” (priority 2020, published 2023)", "key": {"zebrafish EECs (Trpa1)": {"system": "zebrafish EECs (Trpa1)", "assay": "In vivo EEC calcium, Tg(neurod1:Gcamp6f) zebrafish", "experimental": "To record in vivo EEC activity using the Tg(neurod1:Gcamp6f) system, a published protocol with slight modification (Ye et al., 2019) was used. In brief, unanesthetized zebrafish larvae were gently mounted in 3% methylcellulose. Excess water was removed and zebrafish larvae were gently positioned with right side up. Zebrafish were then moved onto an upright Leica M205 FA fluorescence stereomicroscope equipped with a Leica DFC 365FX camera. The zebrafish larvae were allowed to recover for 2 mins before 100 μL of test agent was pipetted directly in front of the mouth region. Images were then recorded every 10 seconds. The data shown in FIG. 2O-R, depicting the EEC responses to E. tarda stimulation, were obtained by mounting unanesthetized zebrafish larvae in 1% low melting agarose. A window (5×5 mm) was cut to expose the head region of the zebrafish. 10 μL of E. tarda culture [˜10^9 Colony Forming Unit (CFU)] were delivered at the zebrafish mouth area. Images were recorded every 10 secs for 20 mins. Image processing and analysis were performed using FIJI software. Time-lapse fluorescence images were first aligned to correct for experimental drift using the plugin “align slices in stack.” Normalized correlation coefficient matching and bilinear interpolation methods for subpixel translation were used for aligning slices (Tseng et al., 2012). The plugin “rolling ball background subtraction” with the rolling ball radius=10 pixels was used to remove the large spatial variation of background intensities. The Gcamp6f fluorescence intensity in the intestinal region was then calculated for each time point. The ratio of maximum fluorescence (Fmax) and the initial fluorescence (F0) was used to measure EEC calcium responses.\nFor EEC Trpa1 activation using the Optovin platform, zebrafish larvae were treated with 10 μM Optovin overnight. Following Optovin treatment, unanesthetized zebrafish were mounted in 1% LMA and imaged under a 780 upright Zeiss confocal microscope using 20× water objective lenses. For all the experiments, the mid-intestine region was imaged (FIG. 10D). The intestinal epithelium was selected as the region of interest (ROI) (FIG. 10A). Serial images were obtained at 1 s/frame. A 405 nm pulse of light was applied to the ROI at 1 pulse/10 s. For some experiments (FIG. 7D-F, FIG. 10B-G), the images were obtained at 10 s/frame. When measuring Optovin effects on intestinal motility in ret−/−, sox10−/− or tph1b−/− zebrafish larvae, embryos were collected from heterozygous zebrafish. ret−/− zebrafish were identified by lack of ENS and deflated swim bladder (Knight et al., 2011), sox10−/− zebrafish were identified by lack of pigment (Rolig et al., 2017), and tph1b−/− zebrafish were identified by PCR-based genotyping (Tornini et al., 2017).\nTo determine whether Optovin-UV or ChR2 was sufficient to activate EECs, Tg(neurod1:Gcamp6f) zebrafish were used. […] The Gcamp6f signal was recorded with 488 nm laser intensity less than 0.5. The zebrafish intestinal motility is quantified through recorded image series of zebrafish intestine using the method similar as previously described (Ganz et al., 2018). […] When calculating the mean velocity, only the mean velocity magnitude was calculated, which therefore doesn't account for the movement direction. The MTrackJ FIJI plugin was used to quantify the mean velocity magnitude (Meijering et al., 2012)."}, "vagal sensory neurons": {"system": "vagal sensory neurons", "assay": "In vivo calcium imaging of vagal sensory ganglia after microgavage", "set-up": "species or system zebrafish", "conditions": "WT; enteric microgavage ~8 nl, AITC 100 mM, indole 1 mM, IAld 1 mM", "experimental": "For delivering bacterial or chemicals specifically to the intestine, the established microgavage technique (Cocchiaro and Rawls, 2013) was adopted. Zebrafish were anesthetized with 1 mg/mL α-Bungarotoxin (α-BTX) and the gavage procedure was performed as previously described using microinjection station (Cocchiaro and Rawls, 2013). For bacteria gavage experiments, 1 ml of overnight bacterial culture was harvested, pelleted, washed with PBS and resuspended in 100 ul PBS.˜8 nl was then delivered into the zebrafish intestine using microgavage. The gavaged zebrafish was then transferred into egg water and mounted in 1% LMA for imaging. For chemical gavage experiments, ˜8 nl of AITC (100 mM), indole (1 mM) and IAld (1 mM) was gavaged into the intestine.\nTg(neurod1:Gcamp6f); Tg(neurod1:TagRFP) zebrafish were used to record vagal sensory ganglia calcium activity in vivo. Zebrafish were anesthetized with 1 mg/mL α-Bungarotoxin (α-BTX) and gavaged with chemical compounds or bacteria as described (Naumann et al., 2016). Zebrafish larvae were mounted in 1% LMA and imaged under a Zeiss 780 upright confocal microscope. Z-stack images of the entire vagal ganglia were collected as serial images at 10 mins/frame and processed in FIJI. Individual vagal sensory neurons were identified and the Gcamp6f to TagRFP fluorescence ratios of individual vagal sensory neurons were calculated."}, "human TRPA1": {"target": "human TRPA1 (Homo sapiens, UniProt O75762)", "sequence (O75762 whole entry)": "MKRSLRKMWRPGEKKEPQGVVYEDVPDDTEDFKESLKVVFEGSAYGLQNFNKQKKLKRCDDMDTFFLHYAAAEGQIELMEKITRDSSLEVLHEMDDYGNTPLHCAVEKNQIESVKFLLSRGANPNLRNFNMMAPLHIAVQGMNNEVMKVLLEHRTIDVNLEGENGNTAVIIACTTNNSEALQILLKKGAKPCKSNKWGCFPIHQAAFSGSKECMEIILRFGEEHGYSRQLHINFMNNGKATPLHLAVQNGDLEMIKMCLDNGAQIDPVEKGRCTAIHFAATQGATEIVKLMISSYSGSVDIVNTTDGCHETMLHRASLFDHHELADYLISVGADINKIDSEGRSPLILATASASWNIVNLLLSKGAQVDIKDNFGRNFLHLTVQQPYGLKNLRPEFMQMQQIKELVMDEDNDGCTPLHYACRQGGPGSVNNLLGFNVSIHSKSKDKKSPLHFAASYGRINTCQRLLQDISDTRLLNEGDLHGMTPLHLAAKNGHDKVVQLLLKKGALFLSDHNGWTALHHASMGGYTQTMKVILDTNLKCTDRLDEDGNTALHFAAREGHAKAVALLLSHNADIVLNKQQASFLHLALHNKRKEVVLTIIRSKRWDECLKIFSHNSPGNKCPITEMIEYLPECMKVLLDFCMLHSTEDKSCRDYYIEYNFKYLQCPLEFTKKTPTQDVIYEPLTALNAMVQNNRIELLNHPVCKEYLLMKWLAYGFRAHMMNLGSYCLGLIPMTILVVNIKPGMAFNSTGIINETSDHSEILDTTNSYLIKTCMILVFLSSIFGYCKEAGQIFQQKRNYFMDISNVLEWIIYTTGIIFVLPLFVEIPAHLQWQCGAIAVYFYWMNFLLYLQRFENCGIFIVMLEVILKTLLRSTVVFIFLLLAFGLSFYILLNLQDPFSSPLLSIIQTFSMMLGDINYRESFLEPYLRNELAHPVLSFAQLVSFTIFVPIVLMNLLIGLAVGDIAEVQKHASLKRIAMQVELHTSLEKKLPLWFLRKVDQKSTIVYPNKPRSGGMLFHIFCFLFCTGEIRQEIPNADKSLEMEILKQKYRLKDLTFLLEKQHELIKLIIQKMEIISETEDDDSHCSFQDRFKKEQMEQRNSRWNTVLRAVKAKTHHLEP", "assay": "Ca2+ influx (Calcium 6 fluorescence) in human TRPA1 expressing HEK-293T cells", "type": "cell-based", "experimental": "(§1) HEK-293T cells were cultured in DMEM (Thermofisher Scientific, Waltham, Mass.) and supplemented with 10% fetal bovine serum (FBS) (Thermofisher Scientific), penicillin (100 units/mL) and streptomycin (0.1 mg/mL). Cells were plated on 100 mm tissue culture plates coated with poly-D-lysine (Sigma Aldrich, Saint Louis, Mo.) and grown to ˜60% confluence. The cells were transiently transfected for 16-24 hours with either human or mouse orthologs of TRPA1 using Fugene 6 transfection reagents and Opti-MEM (Thermofisher Scientific) according to the manufacturer's protocol. Subsequently, cells were trypsinized, re-suspended and re-plated onto poly-D-lysine coated 96-well plates (Krystal black walled plates, Genesee Scientific) at 5×10^5 cells/mL (100 μL/well) and allowed to grow for another 16-20 hrs prior to the experiments. Cells were maintained as monolayers in a 5% CO2 incubator at 37° C.\n(§2) Measurements of changes in intracellular Ca^2+ concentrations ([Ca^2+]i) were performed as described previously (Caceres et al., 2017). In brief, cells in 96-well plates were loaded with Calcium 6, a no-wash fluorescent indicator, for 1.5 hrs (Molecular Devices, San Jose, Calif.) and then transferred to a FlexStation III benchtop scanning fluorometer chamber (Molecular Devices). Fluorescence measurements in the FlexStation were performed at 37° C. (Ex:485 nm, Em: 525 nm at every 1.8 s). After recording baseline fluorescence, agonists (indole, IAld, cinnamaldehyde) were added and fluorescence was monitored for a total of 60 s. […] The change in fluorescence was measured as Fmax-F0, where Fmax is the maximum fluorescence and F0 is the baseline fluorescence measured in each well."}, "mouse TRPA1": {"target": "T1, mouse TRPA1 (Mus musculus, UniProt Q8BLA8)", "T1 construct": "expressed in transfected cells; host or cells: HEK-293T", "T1 sequence (Q8BLA8 whole entry)": "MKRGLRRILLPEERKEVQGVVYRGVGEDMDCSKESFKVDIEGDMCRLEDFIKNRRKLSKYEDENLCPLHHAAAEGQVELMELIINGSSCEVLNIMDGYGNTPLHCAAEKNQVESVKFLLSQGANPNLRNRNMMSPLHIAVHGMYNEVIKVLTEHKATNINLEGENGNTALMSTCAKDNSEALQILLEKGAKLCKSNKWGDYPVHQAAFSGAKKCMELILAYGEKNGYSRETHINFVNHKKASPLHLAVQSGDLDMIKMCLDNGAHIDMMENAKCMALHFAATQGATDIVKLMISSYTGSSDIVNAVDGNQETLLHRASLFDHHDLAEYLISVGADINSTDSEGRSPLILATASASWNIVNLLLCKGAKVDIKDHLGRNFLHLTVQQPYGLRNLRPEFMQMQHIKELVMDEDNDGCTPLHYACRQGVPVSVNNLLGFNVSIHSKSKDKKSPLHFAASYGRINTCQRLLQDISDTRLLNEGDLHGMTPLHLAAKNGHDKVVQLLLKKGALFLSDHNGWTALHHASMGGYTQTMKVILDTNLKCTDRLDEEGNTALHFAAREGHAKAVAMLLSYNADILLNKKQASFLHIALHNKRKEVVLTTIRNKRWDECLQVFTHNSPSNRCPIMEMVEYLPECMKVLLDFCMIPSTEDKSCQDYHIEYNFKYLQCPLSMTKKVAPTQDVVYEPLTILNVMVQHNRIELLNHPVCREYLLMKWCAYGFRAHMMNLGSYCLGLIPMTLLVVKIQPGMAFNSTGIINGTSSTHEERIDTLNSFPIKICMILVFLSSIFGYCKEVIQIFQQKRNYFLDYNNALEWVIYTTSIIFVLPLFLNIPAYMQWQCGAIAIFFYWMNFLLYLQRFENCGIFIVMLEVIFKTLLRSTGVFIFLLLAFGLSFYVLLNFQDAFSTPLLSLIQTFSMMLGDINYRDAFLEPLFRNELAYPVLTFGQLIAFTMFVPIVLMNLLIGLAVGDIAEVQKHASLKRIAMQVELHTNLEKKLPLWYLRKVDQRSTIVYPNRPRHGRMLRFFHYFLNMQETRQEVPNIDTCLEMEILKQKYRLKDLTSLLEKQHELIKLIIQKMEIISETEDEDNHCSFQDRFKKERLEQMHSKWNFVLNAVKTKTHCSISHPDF", "assay": "Ca2+ influx (Calcium 6 fluorescence) in mouse Trpa1-expressing HEK-293T cells", "type": "cell-based", "experimental": "as §1, §2"}, "intestinal motility": {"system": "intestinal motility", "assay": "Zebrafish intestinal motility (PIV-Lab velocity analysis)", "type": "in vivo", "excerpt": "The zebrafish intestinal motility is quantified through recorded image series of zebrafish intestine using the method similar as previously described (Ganz et al., 2018). Intestinal p velocity and v velocity were used to estimate intestinal motility in zebrafish as previously described using the PIV-Lab MATLAB app (Ganz et al., 2018). A positive value of the μ velocity indicates an anterograde intestinal movement and a negative value of the μ velocity indicates a retrograde intestinal movement. The time-course p velocity number is plotted as heatmaps. When calculating the mean velocity, only the mean velocity magnitude was calculated, which therefore doesn't account for the movement direction. The MTrackJ FIJI plugin was used to quantify the mean velocity magnitude (Meijering et al., 2012)."}, "E. tarda": {"system": "E. tarda", "assay": "Intestinal E. tarda mCherry accumulation in zebrafish treated with AhR inhibitors", "type": "in vivo", "conditions": "AhR inhibitor 1 μM or folic acid 10 μM, 3 dpf to 6 dpf", "experimental": "For E. tarda colonization experiments, fertilized zebrafish eggs were collected, sorted and transferred into a cell culture flask containing 80 mL GZM at 0 dpf. At 3 dpf, dead embryos and 60 mL GZM were removed and replaced with 50 mL fresh GZM in each flask. To facilitate consistent commensal gut bacterial colonization, an additional 10 mL of filtered system water (5 μm filter, SLSV025LS, Millipore) were added to each flask. Overnight E. tarda mCherry culture was harvested, washed three times with GZM. 150 μL of GZM-washed E. tarda mCherry culture were inoculated into each flask. The E. tarda concentration is ˜10^6 CFU/ml. […] At 6 dpf, zebrafish larvae were subjected to fluorescence imaging analysis or CFU quantification. For fluorescence imaging analysis, zebrafish larvae were anesthetized with Tricaine ([…]), mounted in 3% methylcellulose and imaged with a Leica M205 FA upright fluorescence stereomicroscope equipped with a Leica DFC 365FX camera. For CFU quantification, digestive tracts were dissected and transferred into 1 mL sterile PBS which was then mechanically disassociated using a Tissue-Tearor (BioSpec Products, 985370). […] The mCherry+ colonies were quantified from each plate and E. tarda colony forming units (CFUs) per fish were calculated. […]"}, "AhR signaling": {"system": "AhR signaling", "conditions": "2-hour 10 μM and 3-day 0.5 μM treatment; cited from earlier work"}}}
{"smiles": "O=Cc1c[nH]c2ccccc12", "note": "[IAld, indole-3-carboxaldehyde]", "values": [{"measurement": "Zebrafish EEC activation (Gcamp6f fluorescence)", "setting": "zebrafish EECs (Trpa1); trpa1b-dependent", "result": "strongly activated"}, {"measurement": "Gcamp6f fluorescence in a subset of vagal sensory neurons", "setting": "vagal sensory neurons", "result": "increased"}, {"measurement": "Activation of human TRPA1 receptor transfected into HEK cells", "setting": "human TRPA1", "result": "activated"}, {"measurement": "TRPA1 agonist efficacy", "setting": "human TRPA1; efficiency comparable to cinnamaldehyde (CAD)", "result": "full TRPA1 agonist activity"}, {"measurement": "EC50", "setting": "human TRPA1; human TRPA1 expressing HEK-293T cells, normalized to 1 mM cinnamaldehyde (CAD), read-out: EC50, integrated Calcium 6 fluorescence response above baseline (Fmax-F0; maximal change in Ca2+ influx)", "result": 77.7, "unit": "µM"}, {"measurement": "Activation of mouse Trpa1", "setting": "mouse TRPA1; compared with human TRPA1", "result": "activated mouse Trpa1, but in a less potent manner"}, {"measurement": "EC50", "setting": "mouse TRPA1; mouse TRPA1, normalized to 1 mM cinnamaldehyde (CAD), read-out: EC50, dose-response effects on mouse TRPA1", "result": 189, "unit": "µM"}]}
{"smiles": "Cc1ccccc1N=Nc1ccc(NC(=O)c2ccnn2C)c(C)c1", "note": "[CH223191]", "values": [{"measurement": "Effect on Optovin-UV induced intestinal motility change", "setting": "intestinal motility; AhR inhibitor 10 μM or folic acid 10 μM for 2 hours", "result": "insufficient to block"}, {"measurement": "Effect on E. tarda intestinal accumulation", "setting": "E. tarda", "result": "insufficient to block"}, {"measurement": "Inhibition of larvae zebrafish AhR signaling", "setting": "AhR signaling", "result": "sufficient to inhibit"}]}
{"smiles": "CCC(=N\\O)/C(C)=C/c1ccc(F)cc1", "note": "[A967079]", "values": [{"measurement": "Effect on indole- and IAld-induced human Trpa1 activation", "setting": "human TRPA1; human", "result": "blocked"}, {"measurement": "Effect on indole- and IAld-induced mouse Trpa1 activation", "setting": "mouse TRPA1; mouse", "result": "blocked"}, {"measurement": "IC50", "setting": "mouse TRPA1; mouse Trpa1-expressing HEK-293T cells, normalized to 100 μM Indole", "result": 0.315, "unit": "µM"}]}
{"smiles": "Cc1cc(/C=C2/SC(=S)NC2=O)c(C)n1-c1cccnc1", "note": "[Optovin]", "values": [{"measurement": "Intestinal motility after Optovin treatment and UV activation", "setting": "intestinal motility; EEC-ablated zebrafish", "result": "failed to induce intestinal motility"}, {"measurement": "Velocity of intestinal motility after Optovin-UV Trpa1 activation", "setting": "intestinal motility; WT larvae, middle intestine", "result": "increased"}, {"measurement": "EEC [Ca2+]i (Gcamp6f fluorescence) after UV light activation", "setting": "zebrafish EECs (Trpa1); WT larvae pretreated with Optovin 10 μM overnight, 405 nm", "result": "significantly increased"}, {"measurement": "EEC [Ca2+]i after UV light exposure", "setting": "zebrafish EECs (Trpa1); trpa1b−/− larvae pretreated with Optovin", "result": "did not increase"}]}
